# Source: US20060135494A1, “Methods of treating injuries of the nervous system associated with hemorrhage” (priority 2002, published 2006)
# How the values were obtained:
# collagenase-induced ICH = test: Neurological testing: apomorphine-induced rotational behavior after ICH; format: in vivo, rat; conditions: 2 days after ICH; vehicle approximately 20
# Source text: All animals received humane care in compliance with the institute's guidelines as outlined in “Guide for the Care and Use of Laboratory Animals” prepared by the National Academy of Sciences and published by the National Institutes of Health (NIH publication no. 86-23, revised 1985). Female Sprague-Dawley rats (250-300 grams (g); Harlan Sprague-Dawley, Inc., Indianapolis, Ind.) were anesthesized with an intramuscular injection of a mixture of ketamine and xylazine and set in supine in a Kopf headholder. The right carotid artery, external and internal branches, was exposed and the distal end of the external carotid freed and retracted to line with the internal carotid. A PE-10 polyethylene tube (Becton-Dickinson, Sparks, Md.) was then introduced from the external into the internal carotid artery, and the former was ligated to hold the tube. […]
# The animals were tested for rotational behavior in response to apomorphine 2 days after surgery. Apomorphine (1 mg/kg bw; Sigma Chemical Co.) was injected subcutaneously, and rotations were determined by a computer-controlled Columbus Instruments Videomex-V system (Columbus, Ohio). […] Step initiation was assessed at 2 days after ICH by independently analyzing stepping behavior in the left and right forelimbs. […] The number of steps initiated by each limb was counted during a 1-minute period.
# [1] = system: collagenase-induced intrastriatal hemorrhage (ICH); test: Hematoma (hemorrhagic lesion) volume in collagenase-induced ICH rat model; format: in vivo; conditions: for Protection (%) ICH core / Protection (%) Peri-ICH: mean ± SEM
# Source text: All animals received humane care in compliance with the institute's guidelines as outlined in “Guide for the Care and Use of Laboratory Animals” prepared by the National Academy of Sciences and published by the National Institutes of Health (NIH publication no. 86-23, revised 1985). Female Sprague-Dawley rats (250-300 grams (g); Harlan Sprague-Dawley, Inc., Indianapolis, Ind.) were anesthesized with an intramuscular injection of a mixture of ketamine and xylazine and set in supine in a Kopf headholder. The right carotid artery, external and internal branches, was exposed and the distal end of the external carotid freed and retracted to line with the internal carotid. A PE-10 polyethylene tube (Becton-Dickinson, Sparks, Md.) was then introduced from the external into the internal carotid artery, and the former was ligated to hold the tube. TUDCA (Calbiochem-Novabiochem Corp., San Diego, Calif.) was dissolved in phosphate buffer, pH 7.4 at […] milligrams per milliliter (mg/ml). Saline or TUDCA solution (1 milliliter per kilogram body weight (ml/kg bw)) were injected directly into the internal carotid artery, within 5 minutes. Different concentrations of TUDCA (10, 50, 100, and 200 mg/kg bw) were administered 1 hour prior to, or 1, 3, and 6 hours after collagenase injection. The polyethylene tube was finally removed, the end of the external carotid artery cauterized, and the wound closed. To induce stroke injury, the animals were placed in a stereotaxic apparatus and ICH induced by collagenase infusion (Rosenberg et al., Stroke 1990;21:801-807 and Chesney et al., Stroke 1995;26:312-316). In brief, a midline incision was made through the scalp to expose the skull. […] (0.5 microliters per minute (μL/min)) of saline containing 0.5 unit (U) bacterial collagenase (type VII; Sigma Chemical Co., St. Louis, Mo.) was made stereotaxically into the striatum with a 10-μl Hamilton syringe at the following coordinates: 0.4 millimeter (mm) anterior and 3.0 mm lateral to bregma and 5.0 mm ventral to the cortical surface. Once the infusion was complete, the Hamilton syringe was left in place for 3 minutes. Body temperature was maintained at 37° C. with a CMA/150 temperature controller throughout the surgery. The rats recovered from surgery in a cage containing food and heated by an incandescent light bulb. Neurological testing was performed at 2 days after induction of ICH. The animals were then sacrificed, and the brains removed and frozen at −70° C. for either serial cryostat sectioning, or RNA and protein extraction. In a subset of animals, serum and brain samples were collected for bile acid analysis.
# After behavioral testing, rats were sacrificed and the brains removed for serial cryostat sectioning. Volumes of hemorrhagic lesion, including core and peri-ICH regions, were quantitated using unbiased stereologic volumetric analysis of 20-μm cryostat sections after staining according to the Nissl protocol. Volumetric analysis was performed according to Cavalieri's method (Howard et al, Unbiased stereology: three-dimensional measurement in microscopy. New York: BIOS Scientific Publishers Ltd 1998). The areas of lesion were determined in 11 Nissl-stained sections 20 μm in thickness, 900 μm apart, from each animal. Volumes (mm^3) were calculated according to the formula V=T×a/p×ΣPi, where V=volume of interest, T=distance between sections (mm), a/p=area associated with each point (mm^2), and Pi=points hitting object in each section.
# [2] = system: phosphorylated Akt-1 Ser473, phosphorylated Bad Ser-136; test: Immunoblotting of phosphorylated Akt-1 and phosphorylated Bad in ICH rat brain; format: in vivo
# Source text: All animals received humane care in compliance with the institute's guidelines as outlined in “Guide for the Care and Use of Laboratory Animals” prepared by the National Academy of Sciences and published by the National Institutes of Health (NIH publication no. 86-23, revised 1985). Female Sprague-Dawley rats (250-300 grams (g); Harlan Sprague-Dawley, Inc., Indianapolis, Ind.) were anesthesized with an intramuscular injection of a mixture of ketamine and xylazine and set in supine in a Kopf headholder. The right carotid artery, external and internal branches, was exposed and the distal end of the external carotid freed and retracted to line with the internal carotid. A PE-10 polyethylene tube (Becton-Dickinson, Sparks, Md.) was then introduced from the external into the internal carotid artery, and the former was ligated to hold the tube. TUDCA (Calbiochem-Novabiochem Corp., San Diego, Calif.) was dissolved in phosphate buffer, pH 7.4 at 400 milligrams per milliliter (mg/ml). Saline or TUDCA solution (1 milliliter per kilogram body weight (ml/kg bw)) were injected directly into the internal carotid artery, within 5 minutes. […]
# Bcl-2 family, NF-κB, IκB, p-Akt, and p-Bad protein levels were determined from total protein homogenates separated by 12% sodium dodecyl sulfate polyacrylamide gel electrophoresis (SDS-PAGE). […]
# caspase-3-like proteases = test: DEVD-specific caspase activity in ICH rat brain tissue; format: in vivo
# Source text: All animals received humane care in compliance with the institute's guidelines as outlined in “Guide for the Care and Use of Laboratory Animals” prepared by the National Academy of Sciences and published by the National Institutes of Health (NIH publication no. 86-23, revised 1985). Female Sprague-Dawley rats (250-300 grams (g); Harlan Sprague-Dawley, Inc., Indianapolis, Ind.) were anesthesized with an intramuscular injection of a mixture of ketamine and xylazine and set in supine in a Kopf headholder. The right carotid artery, external and internal branches, was exposed and the distal end of the external carotid freed and retracted to line with the internal carotid. […]
# Caspase activation was determined in dissected brain tissue from the ispilateral and corresponding contralateral areas. […] General caspase activity was evaluated by enzymatic cleavage of chromophore p-nitroanilide (pNA) from the substrate N-acetyl-Asp-Glu-Val-Asp-pNA (DEVD-pNA; Sigma Chemical Co.). […] The reaction mixtures were incubated at 37° C. for 1 hour, and the formation of pNA was measured at 405 nm using a 96-well plate reader. Protein concentrations were determined using the Bio-Rad protein assay kit (Bio-Rad Laboratories, Hercules, Calif.) according to the manufacturer's specifications.
# [3] = 100 mg/kg bw TUDCA administered at 1 h
# [4] = 100 mg/kg bw TUDCA administered at 3 h
# [5] = 100 mg/kg bw TUDCA administered at 6 h
structure (smiles),measurement,setting,value
"C[C@H](CCC(=O)NCCS(=O)(=O)O)[C@H]1CC[C@H]2[C@@H]3[C@@H](O)C[C@@H]4C[C@H](O)CC[C@]4(C)[C@H]3CC[C@]12C [TUDCA, tauroursodeoxycholic acid]",rotational response to apomorphine,collagenase-induced ICH,less than 10 per 5 minutes
same,hemorrhagic lesions larger in vehicle-injected group compared with TUDCA-treated rats,"[1]; 100 mg/kg bw TUDCA 1 hour before collagenase, 2 days",approximately 50%
same,protective effect on volume of brain lesioned,"[1]; 100 mg/kg bw TUDCA 1 hour before or up to 3 hours after hemorrhage, 2 days",40-50%
same,protective effect on volume of brain lesioned,[1]; 100 mg/kg bw TUDCA 6 hours after collagenase infusion,partially lost but still evident
same,Protection (%) ICH core,[1]; [3],47.7 ± 3.2 %
same,Protection (%) Peri-ICH,[1]; [3],48.6 ± 3.5 %
same,Protection (%) ICH core,[1]; [4],30.0 ± 18.9 %
same,Protection (%) Peri-ICH,[1]; [4],42.8 ± 14.9 %
same,Protection (%) ICH core,[1]; [5],20.9 ± 12.9%
same,Protection (%) Peri-ICH,[1]; [5],38.7 ± 12.9 %
same,hemorrhagic lesion volume,"[1]; 100 mg/kg bw TUDCA into internal carotid artery 1 hour before collagenase, 2 days after infusion, mean±SEM",143.9±46.5 mm^3
same,reduction in lesion volume,"[1]; 200 mg/kg bw TUDCA 1 hour before collagenase, 2 days",~60%
same,protection of lesion volume,"[1]; 10 and 50 mg/kg bw dose regimens, 1 hour before collagenase",significantly less protective
same,levels of phosphorylated Bad compared with untreated sham controls,[2]; brain of rats receiving TUDCA,~2 fold
same,expression of phosphorylated form of Akt-1,"[2]; hemisphere ipsilateral to ICH, TUDCA 10-200 mg/kg bw",largely restored
same,caspase activity versus vehicle-injected animals,"caspase-3-like proteases; 100 mg/kg bw TUDCA, time-course 1 hour before to 6 hours after collagenase",remained markedly lower
same,reduction of caspase activation in the lesioned hemisphere,caspase-3-like proteases; 100 and 200 mg/kg bw TUDCA 1 hour before collagenase,45-60%
